Each block holds one compound with its values, some of them ahead of it.
Key:
hairless mice = experiment: Erythematous response after topical application of nicotinic acid esters to hairless mice; assay type: in vivo; conditions: for Erythematous Response: topical, 0.5 to 2.0% (wt/wt) in 200 mg lotion daily for one week, hairless mice; for cutaneous vasodilation: topical niacin esters
Method: Female hairless mice (HRS-J. 6-8 weeks old were used.) These were housed in solid bottom cages provided with sterile feed and water […], with a 14:10 light-dark cycle. The nicotinic acid esters of Example 1 were applied with a gloved finger daily to the backs of hairless mice in 200 mg of Vanicream Lite™ skin care lotion (Pharmaceutical Specialties, Inc., containing purified water, white petrolatum, ceteareth alcohol and ceteareth-20, propylene glycol, sorbitol solution, simethicone, glyceryl monostearate, polyethylene glycol monostearate, sorbic acid and BHT) at concentrations in the range of 0.5 to 2.0% (wt/wt) for one week. Control mice received 200 mg of the lotion alone. […] Dorsal and ventral skin samples were immediately frozen in liquid nitrogen and stored at −80° C.

[1] = tested on: apoB100/CETP double transgenic mice; experiment: Plasma lipid profiles of apoB100/CETP double transgenic mice, transdermal lauryl niacin ester vs oral niacin, 90 days; assay type: in vivo
Method: Niacin intake was estimated from the water consumed.
For topical administration, niacin lauryl esters was applied daily to the shaved backs of mice in 200 mg of lotion at concentrations of 1, 2, 5 and 10% (wt/wt) for 13 weeks. Per 25-g mouse, the daily topical doses would be in the range of 34 to 340 mg/kg as niacin. Control mice received equal amounts of the vehicle lotion alone. A lipid analysis was performed as described in Example 4.
Improvement of lipid profiles of apoB100/CETP transgenic mice treated with niacin prodrug. The effect of transdermal delivery of lauryl niacin ester on plasma lipid profiles in a comparison with oral niacin in the apoB100/CETP double transgenic mice for 90 days. A total of six groups of six animals were used in this study. For topical administration, lauryl niacin ester was applied daily to the shaved backs of mice. For oral administration, niacin (sodium salt) was dissolved in the drinking water.

mice = conditions: oral niacin; study not named at the place
Method: Additionally, a plasma lipid analysis was performed by taking fasting (16 h) blood samples of the hairless mice were obtained at the beginning, at 30 days and 60 days from the retroorbital plexus, and at the end of treatment by cardiac puncture. The animals were euthanized by cardiac injection of pentobarbital prior to blood collection. Blood was collected into microfuge tubes containing 10 μl of heparin, plasma separated by centrifugation at 2,000×g for 15 minutes and stored at -80° C. until analysis within 1 week. Total cholesterol, HDL-C and triglycerides were measured enzymatically, using a clinical chemistry analyzer Syncrhon CX7 by Beckman). Female apoB/CETP double transgenic mice (Taconic Biotechnology, Germantown, N.Y.) were divided into 6 groups and housed in groups of 6 animals per. […] For oral administration, niacin (sodium salt) was dissolved in drinking water at a concentration of 0.75% (0.63% as free acid). Niacin intake was estimated from the water consumed. The estimated daily niacin intake was approximately 1,400 mg/kg. The oral dose used was 760 mg/kg/day and the topical dose was 250 mg/kg/day as niacin.

[2] = topical, daily to shaved backs, one-fourth the dose of the oral treatment
[3] = oral, sodium salt in drinking water

SMILES: COC(=O)c1cccnc1 [1 carbon]
Erythematous Response (hairless mice): Yes

SMILES: CCOC(=O)c1cccnc1 [2 carbons]
Erythematous Response (hairless mice): Yes

SMILES: CCCCOC(=O)c1cccnc1 [4 carbons]
Erythematous Response (hairless mice): Yes

SMILES: CCCCCCOC(=O)c1cccnc1 [6 carbons]
Erythematous Response (hairless mice): Yes

SMILES: CCCCCCCCOC(=O)c1cccnc1 [8 carbons]
Erythematous Response (hairless mice): Yes

SMILES: CCCCCCCCCCCCCCCCCCOC(=O)c1cccnc1 [18 carbons]
Erythematous Response (hairless mice): No

SMILES: O=C(O)c1cccnc1 [niacin, nicotinic acid]
HDL-C fraction lowered by [1, 3]: 13%
LDL fraction lowered by [1, 3]: 45%
total cholesterol lowered by [1, 3]: 29%
triglycerides lowered by [1, 3]: 37%
total cholesterol lowered by (mice): 12%

Now from value to compound, other results behind:

Erythematous Response (hairless mice): Slight
Erythematous Response (hairless mice; listed as C10 ester): reduced erythematous response
SMILES: CCCCCCCCCCOC(=O)c1cccnc1 [10 carbons]

cutaneous vasodilation (hairless mice): no cutaneous vasodilation
Erythematous Response (hairless mice): No
SMILES: CCCCCCCCCCCCOC(=O)c1cccnc1 [12 carbons, lauryl nicotinate]
HDL-C elevated by [1, 2]: 8%
LDL-C fraction lowered by [1, 2]: 38%
total cholesterol lowered by [1, 2]: 15%
triglycerides lowered by [1, 2]: 33%

Erythematous Response (hairless mice): No
SMILES: CCCCCCCCCCCCCOC(=O)c1cccnc1 [13 carbons]

cutaneous vasodilation (hairless mice): no cutaneous vasodilation
Erythematous Response (hairless mice): No
SMILES: CCCCCCCCCCCCCCOC(=O)c1cccnc1 [14 carbons, myristyl nicotinate]

Erythematous Response (hairless mice): No
SMILES: CCCCCCCCCCCCCCCOC(=O)c1cccnc1 [15 carbons]

Erythematous Response (hairless mice): No
SMILES: CCCCCCCCCCCCCCCCOC(=O)c1cccnc1 [16 carbons]

Reference: US6677361B2, “Topical formulations for the transdermal delivery of niacin and methods of treating hyperlipidemia” (University of Kentucky Research Foundation, priority 2000, dated 2004)
